Earlier results in paper PMC3819144 (Biochemical pharmacology, 2013).

How the values were obtained:
CXCR7 [1] = system: CXCR7
CXCR7 [2] = conditions: requires relatively high concentrations

effect on binding of CXCL12 to CXCR7 (CXCR7 [2]): enhance binding of CXCL12 to CXCR7
SMILES: c1cc(CN2CCCNCCNCCCNCC2)ccc1CN1CCCNCCNCCCNCC1 [AMD3100]
CXCR7 signaling through β-arrestin 2 / recruitment of β-arrestin 2 (CXCR7 [1]): modestly activate CXCR7 signaling through β-arrestin 2
